A short description of this data set: Cytotoxicity against African green monkey Vero cells assessed as cell growth inhibition after 72 hrs by MTT assay. To be noted: African green monkey (Chlorocebus sabaeus). Format: toxicity, cell-based. (Tetrazolium assays rely on reduction of a dye to a coloured formazan, in cell work by metabolically active cells.)

SMILES strings stand for the structures.

In general, IC50 refers to the concentration at which inhibition is half-maximal. `Cc1ccc(-c2cc(C(F)(F)F)nn2-c2ccc(S(=O)(=O)NCCCCCCC(=O)NO)cc2)cc1`: the IC50 at 72 h turned out to be 5.53 µM.

The values above are taken from ChEMBL document CHEMBL3875218, “Bifunctional conjugates with potent inhibitory activity towards cyclooxygenase and histone deacetylase” (Bioorg Med Chem, 2017).
